Experimental data as given in patent US8293895B2, “Carbapenem derivatives” (KBP Biosciences Co., Ltd., priority 2007, dated 2012).
Converted amounts (≈) assume the structure as drawn.

How the values were obtained:
[1] = test system: serratia marcescens; experiment: In vitro antimicrobial activity, agar dilution method; type: cell-based; conditions: serratia marcescens clinical isolates
[2] = test system: proteus mirabilis; experiment: as above; type: cell-based; conditions: proteus mirabilis clinical isolates
[3] = test system: penicillin-sensitive Streptococcus pneumoniae (PSSP); experiment: as above; type: cell-based; conditions: PSSP clinical isolates
Excerpt: (§1) Bacterial strains for test: All the bacterial strains are obtained from clinic/hospital and purchased from public organizations. (1) Gram-positive bacteria: methicillin-sensitive Staphylococcus aureus (MSSA), methicillin-resistant Staphylococcus aureus (MRSA), methicillin-resistant Staphylococcus epidermidis (MRSE), methicillin-sensitive Staphylococcus epidermidis (MSSE), penicillin-sensitive Streptococcus pneumoniae (PSSP), penicillin-resistant Streptococcus pneumoniae (PRSP); (2) Gram-negative bacteria: Escherichia coli (products from ESBLs), Klebsiella pneumonia, Pseudomonas aeruginosa. Drugs to be tested: Compound A-E, self-made as described above; Control drugs: Meropenem (Meropenem for injection), Ertapenem (Ertapenem for injection), commercially available. Experimental Method: the agar dilution method, by reference to Methodology of Pharmacological Experiment (XU Shuyun et al, published by the Peoples Medical Publishing House, 1st Edition, August, 1982; 3rd Edition, 5th printing, January 2002, p 1659-1660).

[4] = test system: pseudomonas aeruginosa; experiment: as above; type: cell-based; conditions: pseudomonas aeruginosa clinical isolates
Excerpt: as §1

[5] = test system: klebsiella pneumonia; experiment: as above; type: cell-based; conditions: Klebsiella pneumoniae, klebsiella pneumonia clinical isolates
Excerpt: as §1

[6] = test system: methicillin-resistant Staphylococcus epidermidis (MRSE); experiment: as above; type: cell-based; conditions: MRSE clinical isolates
Excerpt: as §1

[7] = test system: penicillin-resistant Streptococcus pneumoniae (PRSP); experiment: as above; type: cell-based; conditions: PRSP clinical isolates
Excerpt: as §1

[8] = test system: methicillin-sensitive Staphylococcus epidermidis (MSSE); experiment: as above; type: cell-based; conditions: MSSE clinical isolates
Excerpt: as §1

[9] = test system: methicillin-sensitive Staphylococcus aureus (MSSA); experiment: as above; type: cell-based; conditions: MSSA clinical isolates
Excerpt: as §1

[10] = test system: methicillin-resistant Staphylococcus aureus (MRSA); experiment: as above; type: cell-based; conditions: MRSA clinical isolates
Excerpt: as §1

[11] = In vivo pharmacokinetics of SD rat
Description: Drugs to be Tested and Preparation Thereof
Drugs to be tested: partial compounds of the present invention, self-synthesized as described above.
Control drugs: Ertapenem (Ertapenem for Injection), commercially available.
Internal standard substance: Warfarin, white powder, purity: 99%, batchnumber: 0072-8501, provided by Shanghai Institute for Drug Control.
Drug formulation: being dissolved in physiological saline to make the final concentration to be 5 mg/mL for intravenous injection and formulated before administration.
Test animal: SD male rats, weight: 200˜250 g, purchased from SHANGHAI SLAC LABORATORY ANIMAL CO. LTD.
Administration of the drugs to be tested: The SD male rats were randomly divided into five groups, 3 in each group, administrated by intravenous injection in an amount of 10 mg/kg; and weighted before administration.
Collection of Samples: Zero time was marked before administration; 0.5 mL of blood was respectively sampled from orbit venous plexus at 5 min, 15 min, 30 min, 45 min, 1 h, 2 h, 4 h, 6 h, 8 h, 24 h after administration into heparinized centrifuge tubes. The samples were centrifuged for 6 minutes at 8000 rpm and the supernatant plasma was separated. The plasma was freezed at −20° C. for LC-MS/MS analysis. Establishing liquid chromatography-mass spectrometry (LC-MS) methodology: Chromatographic conditions: chromatographic column. Gemini C6-Phenyl (50 mm×4.6 mm, 5 μm), mobile phase: 0.1% of formic acid-water-acetonitrile (5:35:60, v/v/v); flow rate: 1 mL/min; column temperature: 35-40° C., injection volume: 5 μL; split ratio: 1/5. Mass spectrometer conditions: scanning pattern: cation multiple reactions monitoring (MRM); ion source: electrospray ionization (ESI); Nebulize gas: 8 L/min; Curtain gas: 8 L/min; Collision gas: 4 L/min; Ionspray voltage: 4500 v; Temperature: 400° C./500° C. Preparation of the Standard Curve and Quality-Control Sample: a Suitable Amount of the drug to be tested was weighted precisely and then formulated into a stock solution (2.6 mg/mL) with ultrapure water. The stock solution was diluted with methanol to obtain a series of working solutions in a concentration of 25000, 5000, 2500, 500, 250 and 50 ng/mL respectively. 100 μL of plasma samples were respectively added into 20 μL of said working solutions to obtain the calibrated solutions in a concentration of […]. By the same method, the quality-controlled sample solutions in a concentration of 4000, 800 and 20 ng/mL can be prepared. A standard curve was obtained by chromatographic analysis of the sample. Methods for handling of sample: 20 μL of acetonitrile and 200 μL (200 ng/mL) Warfarin in acetonitrile were added into 100 μL of plasma sample, then spun for 1 minute and centrifuged for 5 minutes at 15000 rpm. 100 μL of the supernatant was taken, where 3 μL was used for the LC/MS/MS analysis. Results and Discussions: Concentration to be administered: The formulated drugs were determined using HPLC, and compared with the standard to obtain that the accuracy of the concentration of the drug solution administered by intravenous injection was 103.2%. Data analysis: The drug concentration in plasma would be considered as zero if under detectable limit (10 ng/mL). The pharmacokinetics parameters were calculated by the non-compartment model using Winnonlin Professional 5.2 pharmacokinetics software. Pharmacokinetics: The pharmacokinetics parameters and drug-time curve were obtained by measuring the plasma drug concentration at different time points. The half lives (t1/2) of the tested compounds were summarized in Table 3, wherein the half lives of the compounds of the present invention in rats (intravenous injection) were longer than those of Meropenem and Ertapenem.

[12] = SD male rats, intravenous injection 10 mg/kg, plasma, X ± SD

Row | SMILES | MIC90 [1] [µg/mL] | MIC90 [2] [µg/mL] | MIC90 [3] [µg/mL] | MIC90 [4] [µg/mL] | MIC90 [5] [µg/mL] | MIC90 [6] [µg/mL] | MIC90 [7] [µg/mL] | MIC90 [8] [µg/mL] | MIC90 [9] [µg/mL] | MIC90 [10] [µg/mL] | Half lives t1/2 [11, 12] [min] | Half lives t1/2 ([11]; rat, in vivo, iv, 10 mg/kg) [min]
1 | C[C@@H](O)[C@H]1C(=O)N2C(C(=O)O)=C(S[C@@H]3CN[C@H](C(=O)NCc4ccco4)C3)[C@H](C)[C@H]12 [Compound A, (4R,5S,6S)-3-[(2S,4S)-2-formyl[[furan-2-ylmethyl]amino]pyrrolidine-4-yl]thio-6-[(1R)-1-hydroxyethyl]-4-methyl-7-oxo-1-aza-bicyclo[3.2.0] hept-2-ene-2-carboxylic acid] | 0.063 (≈ 0.145 µM) | 0.063 (≈ 0.145 µM) | 0.008 (≈ 0.0184 µM) | 64 (≈ 147 µM) | 0.125 (≈ 0.287 µM) | 1 (≈ 2.3 µM) | 0.5 (≈ 1.15 µM) | 0.125 (≈ 0.287 µM) | 0.125 (≈ 0.287 µM) | 32 (≈ 73.5 µM) | 21 ± 2.4 | 
2 | C[C@@H](O)[C@H]1C(=O)N2C(C(=O)O)=C(S[C@@H]3CN[C@H](C(=O)NCc4ccc(C(=O)O)o4)C3)[C@H](C)[C@H]12 [Compound B, (4R,5S,6S)-3-[(2S,4S)-2-formyl[[furan-2-carboxy-5-ylmethyl]amino]-pyrrolidine-4-yl]thio-6-[(1R)-1-hydroxyethyl]-4-methyl-7-oxo-1-aza-bicyclo[3.2.0]hept-2-ene-2-carboxylic acid] | 0.063 (≈ 0.131 µM) | 0.063 (≈ 0.131 µM) | 0.008 (≈ 0.0167 µM) | 32 (≈ 66.7 µM) | 0.5 (≈ 1.04 µM) | 2 (≈ 4.17 µM) | 1 (≈ 2.09 µM) | 0.25 (≈ 0.521 µM) | 0.25 (≈ 0.521 µM) | 64 (≈ 133 µM) | 43.2 ± 1.8 | 
3 | C[C@@H](O)[C@H]1C(=O)N2C(C(=O)O)=C(S[C@@H]3CN[C@H](C(=O)NCc4ccc(CC(=O)O)o4)C3)[C@H](C)[C@H]12 [Compound C, (4R,5S,6S)-3-[(2S,4S)-2-formyl[[furan-2-carboxymethyl-5-ylmethyl]amino]pyrrolidine-4-yl]thio-6-[(1R)-1-hydroxyethyl]-4-methyl-7-oxo-1-aza-bicyclo[3.2.0]hept-2-ene-2-carboxylic acid] | 0.063 (≈ 0.128 µM) | 0.063 (≈ 0.128 µM) | 0.016 (≈ 0.0324 µM) | 32 (≈ 64.8 µM) | 0.5 (≈ 1.01 µM) | 1 (≈ 2.03 µM) | 0.5 (≈ 1.01 µM) | 0.25 (≈ 0.507 µM) | 0.25 (≈ 0.507 µM) | 64 (≈ 130 µM) | 46.8 ± 1.8 | 
4 | C[C@@H](O)[C@H]1C(=O)N2C(C(=O)O)=C(S[C@@H]3CN[C@H](C(=O)NCc4cc(C(=O)O)co4)C3)[C@H](C)[C@H]12 [Compound D, (4R,5S,6S)-3-[(2S,4S)-2-formyl[[furan-3-carboxy-5-ylmethyl]amino]-pyrrolidine-4-yl]-thio-6-[(1R)-1-hydroxyethyl]-4-methyl-7-oxo-1-aza-bicyclo[3.2.0]hept-2-ene-2-carboxylic acid] | 0.063 (≈ 0.131 µM) | 0.063 (≈ 0.131 µM) | 0.008 (≈ 0.0167 µM) | 64 (≈ 133 µM) | 0.125 (≈ 0.261 µM) | 2 (≈ 4.17 µM) | 1 (≈ 2.09 µM) | 0.125 (≈ 0.261 µM) | 0.25 (≈ 0.521 µM) | 32 (≈ 66.7 µM) | 19.8 ± 1.2 | 
5 | C[C@@H](O)[C@H]1C(=O)N2C(C(=O)O)=C(S[C@@H]3CN[C@H](C(=O)NCc4ccc(S(N)(=O)=O)o4)C3)[C@H](C)[C@H]12 [Compound E, (4R,5S,6S)-3-[(2S,4S)-2-formyl[[furan-2-sulphonylamino-5-ylmethyl]amino]-pyrrolidine-4-yl]thio-6-[(1R)-1-hydroxyethyl]-4-methyl-7-oxo-1-aza-bicyclo[3.2.0]hept-2-ene-2-carboxylic acid] | 0.063 (≈ 0.122 µM) | 0.063 (≈ 0.122 µM) | 0.008 (≈ 0.0155 µM) | 32 (≈ 62.2 µM) | 0.5 (≈ 0.972 µM) | 2 (≈ 3.89 µM) | 2 (≈ 3.89 µM) | 0.125 (≈ 0.243 µM) | 0.25 (≈ 0.486 µM) | 64 (≈ 124 µM) | 41.4 ± 2.4 | 
6 | C[C@@H](O)[C@H]1C(=O)N2C(C(=O)O)=C(S[C@@H]3CN[C@H](C(=O)Nc4cccc(C(=O)O)c4)C3)[C@H](C)[C@H]12 [Ertapenem, reference compound] | 0.125 (≈ 0.263 µM) | 0.063 (≈ 0.132 µM) | 0.016 (≈ 0.0336 µM) | > 64 | 1 (≈ 2.1 µM) | 2 (≈ 4.21 µM) | 2 (≈ 4.21 µM) | 0.25 (≈ 0.526 µM) | 0.5 (≈ 1.05 µM) | > 64 |  | 36 ± 1.8
7 | C[C@@H](O)[C@H]1C(=O)N2C(C(=O)O)=C(S[C@@H]3CN[C@H](C(=O)N(C)C)C3)[C@H](C)[C@H]12 [Meropenem, reference compound] | 0.063 (≈ 0.164 µM) | 0.063 (≈ 0.164 µM) | 0.008 (≈ 0.0209 µM) | 32 (≈ 83.4 µM) | 0.5 (≈ 1.3 µM) | 2 (≈ 5.22 µM) | 1 (≈ 2.61 µM) | 0.125 (≈ 0.326 µM) | 0.25 (≈ 0.652 µM) | 64 (≈ 167 µM) | 6.6 ± 1.2 | 
